Reference: patent US20250213471A1, “PEMETREXED DISODIUM LIQUID COMPOSITION, PREPARATION METHOD THEREFOR AND USE THEREOF” (SHANGHAI AURORA BIOTECHNOLOGY CO., LTD., priority 2022, published 2025)
Several values for one entry are separate records, joined by “and”; a condition that tells them apart may be missing. Identical values can stand only once.

Columns and labels:
[1] = system: human plasma protein; assay: Human plasma protein binding rate by equilibrium dialysis; conditions: positive, 5 μM
[2] = system: guinea pigs; assay: Active systemic anaphylaxis experiment in guinea pigs; conditions: first challenge
Experimental: The administration doses were 20 m/kg and 40 mg/kg and were about 1.5 and 3 times of the highest clinical intended dose. The day of the first administration was defined as day 1 of the experiment. Sensitization was performed 1 time every other day. 3 consecutive sensitizations were performed (i.e., sensitization on days 1, 3, and 5 of the experiment). On day 14 and day 21 after the last sensitization (i.e., on day 19 and day 26 of the experiment), the guinea pigs were challenged by intravenous injection at 2 times the dose of the sensitization dose, and the systemic reaction and death after the challenge were observed.

[3] = positive control group (8 mg/mL, 0.5 mL/guinea pig sensitization, i.v.)

Row | Molecule | Binding rate (%) ([1]; human plasma) | Administration side (peak area ratio), Mean [1] | Administration side (peak area ratio), single replicates N = 1-3 [1] | Receiving side (peak area ratio), Mean [1] | Receiving side (peak area ratio), single replicates N = 1-3 [1] | T0 h (peak area ratio), Mean [1] | T0 h (peak area ratio), single replicates N = 1-3 [1] | T5 h (peak area ratio), Mean [1] | T5 h (peak area ratio), single replicates N = 1-3 [1] | Stability (%) ([1]; T5 h vs T0 h) | Time to death of all guinea pigs after challenge administration ([2]; positive control group) | Anaphylaxis Degree of occurrence [2, 3] | Anaphylaxis Incidence (%) [2, 3] | Number of symptoms of anaphylaxis and occurrence proportion: 0 [2, 3] | Number of symptoms of anaphylaxis and occurrence proportion: 1-4 [2, 3] | Number of symptoms of anaphylaxis and occurrence proportion: 5-10 [2, 3] | Number of symptoms of anaphylaxis and occurrence proportion: 11-19 [2, 3] | Number of symptoms of anaphylaxis and occurrence proportion: 20 [2, 3]
1 | CC(C)NCC(O)COc1cccc2ccccc12 (stereo not drawn) [Propranolol] | 87.27% | 3.774 | 3.835 and 3.690 and 3.798 | 0.480 | 0.486 and 0.480 and 0.475 | 5.286 | 5.491 and 5.043 and 5.325 | 4.896 | 4.909 and 4.831 and 4.947 | 92.61% |  |  |  |  |  |  |  | 
2 | Positive control: 8 mg/mL egg white albumin solution, positive control of the anaphylaxis experiment (protein, UniProt P01012 2-386, looked up) Ovalbumin: GSIGAASMEFCFDVFKELKVHHANENIFYCPIAIMSALAMVYLGAKDSTRTQINKVVRFDKLPGFGDSIEAQCGTSVNVHSSLRDILNQITKPNDVYSFSLASRLYAEERYPILPEYLQCVKELYRGGLEPINFQTAADQARELINSWVESQTNGIIRNVLQPSSVDSQTAMVLVNAIVFKGLWEKAFKDEDTQAMPFRVTEQESKPVQMMYQIGLFRVASMASEKMKILELPFASGTMSMLVLLPDEVSGLEQLESIINFEKLTEWTSSNVMEERKIKVYLPRMKMEEKYNLTSVLMAMGITDVFSSSANLSGISSAESLKISQAVHAAHAEINEAGREVVGSAEAGVDAASVSEEFRADHPFLFCIKHIATNAVLFFGRCVSP |  |  |  |  |  |  |  |  |  |  | ≤ 7 min | extremely positive | 100% | 0 | 0 | 0 | 0 | 6/6
